Numbers after ± are expanded uncertainties.
Assays:
[1] = refractive index (Na D-line) (dimensionless); xn = mol fraction of the nth substance listed; conditions: 101 kPa, Liquid, Standard Abbe refractometry
[2] = xn = mol fraction of the nth substance listed; conditions: 101 kPa, Liquid; for speed of sound: Pulse-echo method

C1CCCC1 [cyclopentane] + Cc1ccccc1C
Conditions | mass density, [2] [kg/m3] | refractive index, [1] | speed of sound, [2] [m/s]
298.15 K, x1 = 0.045 | 870.7 ± 0.5 | 1.49951 ± 0.0011 | 1342 ± 2
298.15 K, x1 = 0.0924 | 865.7 ± 0.5 | 1.49549 ± 0.001 | 1336 ± 2
298.15 K, x1 = 0.1949 | 854.1 ± 0.5 | 1.48698 ± 0.0011 | 1319 ± 2
298.15 K, x1 = 0.2932 | 842.5 ± 0.5 | 1.4791 ± 0.001 | 1304 ± 2
298.15 K, x1 = 0.3903 | 830.4 ± 0.5 | 1.47003 ± 0.0011 | 1289 ± 2
298.15 K, x1 = 0.4954 | 816.6 ± 0.6 | 1.46059 ± 0.0011 | 1273 ± 2
298.15 K, x1 = 0.594 | 802.9 ± 0.6 | 1.4507 ± 0.0011 | 1259 ± 2
298.15 K, x1 = 0.6958 | 788.1 ± 0.6 | 1.43935 ± 0.0011 | 1244 ± 2
298.15 K, x1 = 0.7939 | 773 ± 0.6 | 1.42832 ± 0.0011 | 1231 ± 2
298.15 K, x1 = 0.8926 | 757.3 ± 0.6 | 1.41649 ± 0.0011 | 1217 ± 2
298.15 K, x1 = 0.9503 | 747.9 ± 0.6 | 1.40949 ± 0.0011 | 1210 ± 2
298.15 K, x1 = 1 | 740 ± 0.6 | 1.40292 ± 0.001 | 1204 ± 2
313.15 K, x1 = 0.072 | 855 ± 0.5 | 1.48922 ± 0.001 | 1277 ± 2
313.15 K, x1 = 0.0931 | 852.7 ± 0.5 | 1.48739 ± 0.001 | 1274 ± 2
313.15 K, x1 = 0.1919 | 841.5 ± 0.5 | 1.47936 ± 0.001 | 1257 ± 2
313.15 K, x1 = 0.2934 | 829.3 ± 0.5 | 1.47048 ± 0.001 | 1241 ± 2
313.15 K, x1 = 0.3772 | 818.8 ± 0.5 | 1.46299 ± 0.00093 | 1227 ± 2
313.15 K, x1 = 0.4855 | 804.6 ± 0.6 | 1.45278 ± 0.00089 | 1209 ± 2
313.15 K, x1 = 0.5894 | 790.1 ± 0.6 | 1.44238 ± 0.00087 | 1192 ± 2
313.15 K, x1 = 0.685 | 776.2 ± 0.6 | 1.43216 ± 0.00092 | 1177 ± 2
313.15 K, x1 = 0.8099 | 756.9 ± 0.6 | 1.41833 ± 0.001 | 1158 ± 2
313.15 K, x1 = 0.8912 | 743.6 ± 0.6 | 1.40862 ± 0.0012 | 1146 ± 2
313.15 K, x1 = 0.9479 | 734.1 ± 0.7 | 1.402 ± 0.0017 | 1138 ± 2
313.15 K, x1 = 1 | 725 ± 0.7 | 1.39456 ± 0.001 | 1130 ± 2

C1CCCCCCC1 [cyclooctane] + Cc1ccccc1C
Conditions | mass density, [2] [kg/m3] | refractive index, [1] | speed of sound, [2] [m/s]
298.15 K, x1 = 0.0513 | 871.8 ± 0.5 | 1.49887 ± 0.00061 | 1347 ± 2
298.15 K, x1 = 0.1015 | 868.4 ± 0.5 | 1.49595 ± 0.0007 | 1348 ± 2
298.15 K, x1 = 0.2 | 862.5 ± 0.5 | 1.49039 ± 0.0007 | 1349 ± 2
298.15 K, x1 = 0.3067 | 856.9 ± 0.5 | 1.48468 ± 0.0007 | 1351 ± 2
298.15 K, x1 = 0.4026 | 852.2 ± 0.5 | 1.47987 ± 0.0007 | 1354 ± 2
298.15 K, x1 = 0.5037 | 847.6 ± 0.5 | 1.47508 ± 0.0007 | 1358 ± 2
298.15 K, x1 = 0.6262 | 842.6 ± 0.5 | 1.46963 ± 0.0007 | 1364 ± 2
298.15 K, x1 = 0.7007 | 839.9 ± 0.5 | 1.46653 ± 0.0007 | 1368 ± 2
298.15 K, x1 = 0.8028 | 836.5 ± 0.5 | 1.4626 ± 0.0007 | 1375 ± 2
298.15 K, x1 = 0.8953 | 833.9 ± 0.5 | 1.45933 ± 0.0007 | 1381 ± 2
298.15 K, x1 = 0.9498 | 832.5 ± 0.5 | 1.45752 ± 0.0007 | 1386 ± 2
298.15 K, x1 = 1 | 831.5 ± 0.5 | 1.45598 ± 0.00061 | 1391 ± 2
313.15 K, x1 = 0.0508 | 859.7 ± 0.5 | 1.49181 ± 0.0006 | 1289 ± 2
313.15 K, x1 = 0.0905 | 857.3 ± 0.5 | 1.48933 ± 0.0007 | 1289 ± 2
313.15 K, x1 = 0.1697 | 852.7 ± 0.5 | 1.48503 ± 0.0007 | 1289 ± 2
313.15 K, x1 = 0.2967 | 845.9 ± 0.5 | 1.47816 ± 0.0007 | 1291 ± 2
313.15 K, x1 = 0.3824 | 841.6 ± 0.5 | 1.47392 ± 0.0007 | 1293 ± 2
313.15 K, x1 = 0.4839 | 836.9 ± 0.5 | 1.46911 ± 0.0007 | 1296 ± 2
313.15 K, x1 = 0.5878 | 832.4 ± 0.5 | 1.46435 ± 0.0007 | 1300 ± 2
313.15 K, x1 = 0.6869 | 828.6 ± 0.5 | 1.46018 ± 0.0007 | 1305 ± 2
313.15 K, x1 = 0.7892 | 825.1 ± 0.5 | 1.45617 ± 0.0007 | 1310 ± 2
313.15 K, x1 = 0.8891 | 822 ± 0.5 | 1.45244 ± 0.0007 | 1317 ± 2
313.15 K, x1 = 0.9368 | 820.7 ± 0.5 | 1.45072 ± 0.0007 | 1321 ± 2
313.15 K, x1 = 1 | 819.2 ± 0.5 | 1.44877 ± 0.00061 | 1326 ± 2

Cc1cccc(C)c1 [1,3-dimethylbenzene] + C1CCCCCCC1
x2 = 0
Conditions | mass density, [2] [kg/m3] | refractive index, [1] | speed of sound, [2] [m/s]
298.15 K | 859.8 ± 0.5 | 1.49466 ± 0.00066 | 1321 ± 2
313.15 K | 846.9 ± 0.5 | 1.48653 ± 0.00066 | 1259 ± 2

C1CCCCC1 [cyclohexane] + Cc1ccc(C)cc1
x1 = 1
Conditions | mass density, [2] [kg/m3] | refractive index, [1] | speed of sound, [2] [m/s]
298.15 K | 773.9 ± 0.5 | 1.4236 ± 0.00064 | 1255 ± 2
313.15 K | 759.6 ± 0.5 | 1.41516 ± 0.00064 | 1182 ± 2

Cc1cccc(C)c1 [1,3-dimethylbenzene] + C1CCCC1
x2 = 0
Conditions | mass density, [2] [kg/m3] | refractive index, [1] | speed of sound, [2] [m/s]
298.15 K | 859.8 ± 0.5 | 1.49466 ± 0.001 | 1321 ± 2
313.15 K | 846.9 ± 0.5 | 1.48653 ± 0.001 | 1259 ± 2
